Experimental findings from patent US12208080B2, “Compositions and methods for modulation of extracellular vesicle release and treatment of neurological disorders” (GEORGE MASON RESEARCH FOUNDATION, INC., priority 2018, dated 2025) are described below.

Common to all, as to format: cell-based
The test system of series [1] is HIV-1 infected monocytes (U1). Kind of series: RT-qPCR of EV-associated HIV-1 TAR and env RNA from U1 cells. Conditions: 5 days; for reduction in TAR RNA within EVs: average from two replicates; for incorporation of TAR RNA into EVs / incorporation of env RNA into EVs: 1, 5, 20, 50 μM; for incorporation of TAR RNA into EVs: FIG. 3A; for incorporation of env RNA into EVs: FIG. 3B; for env RNA within EVs: FIG. 9C. (In general: In qPCR the cycle at which signal appears reflects the starting amount.)

Series [2] relates to HIV-1 infected monocytes (U1). The series is described as follows: RT-qPCR of intracellular HIV-1 TAR and env RNA in U1 cells (viral transcription). The settings on record: for intracellular TAR RNA (HIV-1 transcription) / intracellular env RNA (HIV-1 transcription): 1, 5, 20, 50 μM, 5 days, FIG. 4A; for intracellular TAR RNA / intracellular env RNA: CBD 1, 5, 10 μM, THC 1, 5, 10 μg/mL every day for 5 days, FIG. 15A. As for the experimental part: HIV-1 infected monocytes (U1) were treated with CBD (1, 5, 20, and 50 μM) or THC (1, 5, 20, and 50 μM) for 5 days. Total RNA was isolated from cell pellets and analyzed by RT-qpCR for TAR RNA and env RNA. Student's t-test was used to determine significance (***=p<0.001, and**=p<0.01).
FIGS. 15A-15C are graphs and gels showing cannabidiols lower intracellular viral transcription and downstream viral products. U1 cells (1×10^6) were treated with a titration of CBD (1, 5, 10 μM) and THC (1, 5, 10 μg/mL) every day for 5 days. A) Intracellular RNA was isolated and analyzed through RT-qPCR for HIV-1 viral transcripts TAR and env. Each bar represents an average of three independent replicates. B) U1 cells (2×10^6) were treated with a titration of CBD (1, 5, 10 μM) every day for 5 days. Cells pellets were lysed, run through SDS-PAGE, and western blotted for (p-)/NF-κB, autophagosomal markers (p63, LC3), EV biogenesis marker VPS4, viral markers (gp120, Nef, p24), and Actin. C) U1 cells (5×10^6) were treated±CBD (10 μM) and Flavopiridol hydrochloride (50 nM; indicated as Flavo) and incubated for the following time points: 0 minutes, 2 hours and 6 hours. Cells were cross-linked with 1% formaldehyde solution and ChIP-ed for IgG and Pol II. ChIP DNA samples were analyzed via qPCR for TAR and env. Student's t-test was used for statistical analysis, where *p-value≤0.05; **p-value≤0.01, ***p-value≤0.001.
To determine if the observed reduction in EV-associated viral RNA was a result of a decrease in HIV-1 transcription rather than an alteration in the packaging of these viral RNAs into EVs, intracellular RNA was analyzed to assess for changes HIV-1 transcription. […] The differences in inhibition of short transcripts imply targeting at different stages of transcription with CBD inhibiting transcription initiation and THC inhibiting transcription elongation. These differences in transcriptional regulation can be further analyzed using a three-state L TR mathematical model to depict changes in viral RNA and protein production over extended periods of time (FIG. 4B).
For the isolation of total RNA, cells were harvested, washed once in 1×PBS without calcium or magnesium and resuspended in 50 μL of 1×PBS. For the isolation of total RNA from EVs, Nanotrap particles were incubated and harvested as described above, then resuspended in 50 μL of 1×PBS without calcium or magnesium. Total RNA was isolated from cell pellets and NT80/82 pellets bound with EVs using Trizol Reagent (Invitrogen) as described by the manufacturer's protocol. cDNA was generated using GoScript Reverse Transcription Systems (Promega) using Envelope Reverse: (5′-TGGGATAAGGGTCTGAAACG-3′ (SEQ ID NO:1); Tm=58° C.), and TAR Reverse: (5′-CAACAGACGGGCACACACTAC-3′ (SEQ ID NO:2), Tm=58° C.) primers. Serial dilutions of DNA from a CEM T-cell line containing a single copy of HIV-1 LAV provirus per cell (8E5 cells) were used as the quantitative standards. cDNA samples (2 μL/well) were plated into a Master Mix (18 μL/well) containing IQ Supermix (Bio-Rad), TAR Forward Primer (5′-GGTCTCTCTGGTTAGACCAGATCTG-3′ (SEQ ID NO:3)), TAR Reverse Primer (5′-CAACAGACGGGCACACACTAC-3′ (SEQ ID NO:4)), and TAR Probe (5′56-FAM-AG CCTCAATAAAGCTTGCCTTGAGTGCTTC-36-TAMSp-3′ (SEQ ID NO:5)). RT-qPCR conditions were as follows: one cycle for 2 min at 95° C. followed by 41 cycles of 95° C. for 15 s and 58° C. for 40 s. Reactions were performed in triplicate using the BioRad CFX96 Real Time System. Quantitation was determined using cycle threshold (Ct) values relative to the 8E5 standard curve using the BioRad CFX Manager Software. Analysis of generated raw data was analyzed using Microsoft Excel 2016.
Therefore, U1 monocytes were treated with a titration of CBD (1, 5, 10 μM) and THC (1, 5, 10 μg/mL) every day for 5 days. Total RNA was isolated from the harvested cell pellets followed by RT-qPCR analysis of 3 independent replicates for TAR and env RNAs.

Series [3] concerns HIV-1 infected U1 monocytic cells. The series is described as follows: MTT cell viability assay. Conditions: CBD 1, 5, 10 μM, THC 1, 5, 10 μg/ml, 5 days, FIG. 7. As for the experimental part: FIG. 7 is a graph showing cell viability analysis of cannabidiol components on HIV-1 infected monocytes. HIV-1 infected U1 monocytic cells (1×10^6) were treated with CBD (green bars) at 1, 5, 10 and 50 μM) or THC (blue bars) at 1, 5, 10 and 50 μg/mL) every day for 5 days. Cell viability was determined using the MTT assay. Student's t-test was used for statistical analysis, where n.s is not significant, *p-value≤0.05; **p-value≤0.01, ***p-value≤0.001.
Cells were cultured in RPMI with 10% exosome-free FBS at 10^6 cells per well in 6 well plates. Cells were treated with 0.005% ethanol (control), CBD (1, 5 10, 50 μm) and THC (1, 5, 10, 50 μg/mL) once per day for 5 days. The MTT assay was used to measure cell death according to manufacturer's protocol (Sigma). After incubating with MTT solution for 2 h, the culture medium was aspirated and 1 mL of MTT solvent was added to each well. Cell viability was determined by the formation of formazan crystal and measured by absorbance at 590 nm and 620 nm, as previously described (Cotto et al., 2018, Cocaine and HIV-1 Tat Disrupt Cholesterol Homeostasis in Astrocytes: Implications for HIV-Associated Neurocognitive Disorders in Cocaine User Patients. Glia, 66(4), 889-902).
Supernatants were harvested and analyzed using ZetaView NTA.
(Formazan colour is commonly taken as a measure of viable cells.)

Where [4] appears, read: CBD 1, 5, 10 μM, THC 1, 5, 10 μg/mL.
Setting [5] is: 10 μM every day for 5 days, FIG. 15A lane 4.

In the case of `C=C(C)[C@@H]1CCC(C)=C[C@H]1c1c(O)cc(CCCCC)cc1O` [CBD, 2-[1R-3-methyl-6R-(1-methylethenyl)-2-cyclohexen-1-yl]-5-pentyl-1,3-benzenediol], the “reduction in TAR RNA within EVs” value in series [1] (5 μM, FIG. 9B) stood at 55%. For the same molecule, in series [1] (10 μM, FIG. 9B), the “reduction in TAR RNA within EVs” value was 86%. In series [1], the “incorporation of TAR RNA into EVs” value is given as “statistically significant, dose-dependent decrease” and the “incorporation of env RNA into EVs” value is recorded as “statistically significant, dose-dependent decrease”. Further, the “dose-dependent decrease in EV-associated TAR RNA” value in series [1] (CBD 1, 5, 10 μM, THC 1, 5, 10 μg/mL, FIG. 9B) is “dose-dependent decrease”. Further, the “env RNA within EVs” value in series [1] (setting [4]) is reported as “reduction”. For the same molecule, in series [2] (setting [5]), the “decrease in intracellular TAR RNA compared to untreated control” value is 95% and the “decrease in intracellular env RNA compared to untreated control” value turned out to be 96%. Also, in series [2], the “intracellular TAR RNA (HIV-1 transcription)” value is listed as “decrease of both transcripts”, the “intracellular env RNA (HIV-1 transcription)” value is recorded as “decrease of both transcripts”, the “intracellular TAR RNA” value is reported as “dose-dependent decrease” and the “intracellular env RNA” value is given as “dose-dependent decrease”. For the same molecule, in series [3], the cell viability result is “no effects on cell viability”.

Regarding `CCCCCc1cc(O)c2c(c1)OC(C)(C)[C@@H]1CCC(C)=C[C@@H]21` [THC, Δ9-tetrahydrocannabinol], in series [1], the “incorporation of TAR RNA into EVs” value is “statistically significant, dose-dependent decrease” and the “incorporation of env RNA into EVs” value is reported as “statistically significant, dose-dependent decrease”. Also, the “env RNA within EVs” value in series [1] (setting [4]) was “reduction”. Moreover, in series [2], the “intracellular TAR RNA (HIV-1 transcription)” value is “only resulting in a decrease in the env RNA”, the “intracellular env RNA (HIV-1 transcription)” value is given as “decrease in the env RNA”, the “intracellular TAR RNA” value was “not TAR RNA” and the “intracellular env RNA” value is reported as “only treatment with the highest concentration of THC resulted in a significant decrease”. Further, the cell viability result in series [3] is reported as “no effects on cell viability”.
